From patent publication US20250179031A1, “PROTEASOME ENHANCERS AND USES THEREOF” (Board of Trustees of Michigan State University, priority 2022, published 2025)

Legend:
Assay type in all cases: biochemical
[1] = system: T1, human 20S proteasome; test: Fluorogenic peptide degradation 20S proteasome activity assay, combination of CT-L, T-L and Casp-L substrates
T1 construct: purchased Boston Biochem, Inc. (Cambridge, MA)
Method: (§1) Activity assays were carried out in a 100 μL reaction volume. Different concentrations (40-1.25 μM) of test compounds (1 μL) were added to a black flat/clear bottom 96-well plate containing 2 nM of human constitutive 20S proteasome ([…]), in 50 mM Tris-HCl at pH 7.8, 100 mM NaCl and allowed to incubate for 15 min at 37° C. Fluorogenic substrates (5 μL) were then added and the enzymatic activity measured at 37° C. on a SpectraMax M5e spectrometer by measuring the change in fluorescence unit per minute for 1 hour at 380-460 nm. The fluorescence units for the vehicle control were set at a 100%, and the ratio of drug-treated sample set to that of vehicle control was used to calculate the fold change in enzymatic activity. The fluorogenic substrates used were one of the following: Suc-LLVY-AMC (CT-L activity, 20 μM), Z-LLE-AMC (Casp-L activity, 20 μM), Boc-LRR-AMC (Trp-L activity, 40 μM) or a combination of the three substrates each at 6.67 μM. Results were analysed and plotted using GraphPad Prism 7.
(§2) Screening of this library of dihydroquinazolines was performed in two stages. In the first stage, each compound was screened at three concentrations (3, 10 and 30 μM) to select lead agents. Secondly, lead agents were further analyzed using full concentration responses (6-point titration ranging from 1.25 μM-40 μM) for each of the three proteolytic activities of the 20S proteasome and a combination thereof. The proteolytic activity of the 20S proteasome can be monitored in vitro by measuring the cleavage of fluorogenic peptide substrates for the different catalytic sites as an increase in 7-amino-4-methycoumarin (AMC) fluorescence overtime. A combination of chymotrypsin-like (CT-L, Suc-LLVY-AMC), tryptic-like (T-L, Boc-LRR-AMC) and caspase-like (Casp-L, Z-LLE-AMC) peptide substrates were used in equal amounts to screen compounds for overall 20S activity.
Pure human 20S proteasome was pre-treated with 3, 10 or 30 μM of one of the analogues or DMSO (vehicle control) for 15 min at 37° C. To each sample was then added a mixture of the three substrates (13.3 μM each). The release of AMC was monitored as fluorescence overtime for 1 h and the resulting 20S activity changes were determined by comparing to the untreated 20S and calculating the fold-increase in activity for each analogue at a given concentration (Table 1, 30 μM).
(§3) After analyzing the results in Table 1, three of the most promising analogues were selected for further studies into their 20S activity. Compounds 10, 2 and 18 were selected to be carried forward based on their fold increase and the highest Max-Fold activities. […] These compounds were then tested to obtain a full concentration—response (FIG. 1) of their activities towards the 20S proteasome using each of the three substrates for the three catalytic sites individually and the combination of the three substrates. This was done to ensure that each of the selected compounds activate the 20S proteasome at all three catalytic sites, which is critical for effective IDP degradation, as these proteins are likely to contain multiple cleavage sites for each.
(§4) Using the data in FIG. 1, the concentration at which 20S activity was doubled (AC200) was calculated for each compound using each substrate and the combination of the three substrates (Table 2).

[2] = system: T2, human 20S proteasome, caspase-like (Casp-L) site; test: Fluorogenic peptide degradation 20S proteasome activity assay, Z-LLE-AMC (Casp-L activity); settings: Z-LLE-AMC substrate
T2 construct: purchased Boston Biochem, Inc. (Cambridge, MA)
Method: as §1, §2, §3, §4

[3] = system: T3, human 20S proteasome (α-synuclein substrate); test: In vitro purified α-synuclein degradation assay (silver stain); settings: pure human α-synuclein, 4 h at 37° C., silver stain quantified
T3 construct: purchased Boston Biochem, Inc. (Cambridge, MA)
Method: Representative silver stain of these alpha-synuclein digestions and quantification of three trials. 20S proteasome subunits were used as a loading control in the quantification (right). […] Error bars denote standard deviation. Ordinary one-way ANOVA statistical analysis was used to determine statistical significance (ns=not significant, *p<0.05, **p<0.01, […], and ****p<0.00001).
In vitro purified α-synuclein degradation assay. Digestion of α-synuclein was carried out in a 50 μL reaction volume made of 50 mM Tris and 100 mM NaCl at pH 7.8; 0.5 μM purified α-synuclein and 6.7 nM purified human 20S proteasome. Briefly, 20S proteasome was diluted to 7.58 nM in the reaction buffer. Test compounds or vehicle (1 μL of 50× stock or DMSO) were added to 44 μL of 7.58 nM 20S and incubated at 37° C. for 20 min. 5 μL of 5 μM α-synuclein substrate was then added to the reaction mixture and incubated at 37° C. for 4 hours. The reactions were quenched with concentrated sodium dodecyl sulfate (SDS) loading buffer. After boiling for 10 min, samples were resolved on a 4-20% Tris-glycine SDS-PAGE gel. The gels were then stained using a Pierce Silver Stain Kit (Thermo Scientific, Rockford IL) and the provided procedure. Silver stained gels were then quantified using ImageJ. […]

[4] = system: T4, human 20S proteasome, tryptic-like (T-L) site; test: Fluorogenic peptide degradation 20S proteasome activity assay, Boc-LRR-AMC (T-L activity); settings: Boc-LRR-AMC substrate
T4 construct: purchased Boston Biochem, Inc. (Cambridge, MA)
Method: as §1, §2, §3, §4

[5] = system: T5, human 20S proteasome, chymotrypsin-like (CT-L) site; test: Fluorogenic peptide degradation 20S proteasome activity assay, Suc-LLVY-AMC (CT-L activity); settings: Suc-LLVY-AMC substrate
T5 construct: purchased Boston Biochem, Inc. (Cambridge, MA)
Method: as §1, §2, §3, §4

[6] = combination of the three substrates, 1.25-40 μM titration

Row | SMILES | Fold increase over vehicle (30 μM), enhancement of 20S activity ([1]; 30 μM compound, mixture of the three substrates, 15 min pre-treatment at 37° C., 1 h read) [fold] | concentration at which 20S activity was doubled in the combination (in words) ([1]; combination of the three substrates) | AC200 (concentration at which 20S activity was doubled), Combo [1, 6] [µM] | Max Fold, Combo [1, 6] [fold] | AC200, Casp-L [2] [µM] | Max Fold, Casp-L [2] [fold] | 20S-mediated degradation of α-synuclein (in words) [3] | AC200, T-L [4] [µM] | Max Fold, T-L [4] [fold] | AC200, CT-L [5] [µM] | Max Fold, CT-L [5] [fold]
1 | COc1ccc2c(c1)N=C(c1ccccc1)N(C1CCN(Cc3ccccc3)CC1)C2c1ccccc1 (stereo not drawn) [Compound 18] | 7 | low μM concentrations | 1.3 | 5.5 | 2.8 | 10.6 | effectively enhanced the rate of degradation of α-synuclein by the 20S in vitro in a concentration dependent manner | 1.7 | 8.7 | 10.5 | 3.8
2 | CC(C)C[C@H](NC(=O)[C@H](Cc1ccccc1)NC(=O)c1cnccn1)B(O)O [bortezomib, reference compound] |  |  |  |  |  |  | prevented α-synuclein degradation |  |  |  | 
